Consider 1 molecule from US20070060636A1, “High enantiomeric purity dexanabinol for pharmaceutical compositions” (priority 2002, published 2007).

The AUC(0-inf) is the area under the concentration-time curve extrapolated to infinity. As usually defined, the Cmax is the peak of the concentration-time curve. For orientation: NOAEL means the highest dose or exposure tested at which no adverse effect was seen.

A short description of data set [1]: international clinical trials, safety. It is filed as in vivo, human. The note with it: more than 500 patients exposed, dexanabinol CREMOPHOR EL:ethanol product. The text has this:
A Safety Committee appointed to monitor patient data to ensure patient safety analyzed patients' data after the enrollment and in all cases the safety committee found the drug safe.

For data set [2] the following is noted: in vivo; cited from earlier work.
Data set [3] in a line: 28-day multiple dose study, monkey. The format is in vivo, monkeys. The note with it: for AUC(0-inf) / Cmax: plasma, 25 mg/kg i.v. daily, final dose Day 28 (NOAEL); for AUC∞ Ratio to Phase I / Cmax Ratio to Phase I / AUC∞ Ratio to Phase II / Cmax Ratio to Phase II: 25 mg/kg Day 28; for AUC∞ Ratio to Phase I / Cmax Ratio to Phase I: vs human 150 mg Phase I; for AUC∞ Ratio to Phase II / Cmax Ratio to Phase II: vs human 150 mg Phase II. As for the experimental part:
The pharmacokinetics of dexanabinol of high enantiomeric purity formulated in CREMOPHOR EL®:ethanol as described in Example 4 were investigated in rats, rabbits, and monkeys following intravenous administration of single doses, and 14 and 28 days of repeated dosing. Human pharmacokinetics was studied during Phase I and Phase II clinical studies. Dexanabinol used in the pharmacokinetic studies was formulated as drug concentrates of 50 and 100 mg/ml and diluted with sterile 0.9% NaCl solution prior to intravenous (i.v.) administration to the desired final doses. Determination of dexanabinol concentrations in plasma and brain extracts was carried out using a validated Gas Chromatography-Mass Spectra (GC-MS) assay following solid phase extraction of the drug and derivatization. The limit of quantitation of the assay is 0.1 ng/ml.
Pharmacokinetic parameters were estimated by a non-compartmental method using WinNonlin Professional version 3.2 (Pharsight Corp., Mountain View, Calif.). The maximum plasma concentration (Cmax), when the drug is administered by infusion, is the concentration at the end of infusion. The Cmax following intravenous bolus administration is the value estimated by the software to be the concentration at t=0. The terminal slope (X) was estimated by linear regression through the last time points and used to calculate the terminal half-life (t1/2) from the following equation: t1/2=0.693/λ The area under the curve from time of dosing through the last time point (AUCz) was calculated by the linear trapezoid method. The AUC extrapolated to infinity (AUC∞) was calculated from the following equation: AUC∞=AUCz+Cz/λ where Cz is the concentration at the last time point predicted by the linear regression. AUC∞ was normalized for dose (mg/kg) and presented as AUC∞/Dose. Mean residence time (MRT), when the drug is administered by infusion is described by the following equation: MRT=(AUMC/AUC)−(TI)/2 Mean residence time after i.v. bolus administration is described by the following equation: MRT=(AUMC/AUC) where AUMC is the area under the first moment curve and TI is the length of infusion. Plasma clearance (CL), and the apparent volume of distribution at steady state (Vss) were calculated from the following equations: CL=Dose/AUC∞ Vss=MRT×CL
In 14-day multiple dose pharmacokinetic studies, the NOAEL was 15 mg/kg/day in rats and 25 mg/kg/day in rabbits. In a 28-day study in monkeys the NOAEL was 25 mg/kg/day. Cmax and AUC observed following the last dose at the NOAEL in the multiple dose toxicity studies and the ratios of these values to those observed in the Phase I and II studies for the 150 mg dose are shown in Table 7.

[4] abbreviates: both sexes, iv, monkey male & female.

Structures are written as SMILES.

Turning to `CCCCCCC(C)(C)c1cc(O)c2c(c1)OC(C)(C)[C@H]1CC=C(CO)C[C@H]21` [dexanabinol, 1,1-dimethylheptyl-(3S,4S)-7-hydroxy-Δ^6-tetrahydrocannabinol], in data set [1], the serious adverse reactions entry is on record as “no serious adverse reactions were reported”. Further, the cardiovascular effects entry in data set [2] is listed as “devoid of cardiovascular effects”. Also, the AUC(0-inf) in data set [3] (setting [4]) is 193 µg·h/mL; in data set [3] (iv, monkey female) it was 178 µg·h/mL; in data set [3] (iv, monkey male) it was 208 µg·h/mL. The Cmax in data set [3] (setting [4]) is 162 µg/mL; in data set [3] (iv, monkey female) it was 161 µg/mL; in data set [3] (iv, monkey male), 163 µg/mL. Further, the “AUC∞ Ratio to Phase I” value in data set [3] (monkey female) is given as 55.5; in data set [3] (monkey male & female), 60.2; in data set [3] (monkey male), 64.9. Besides, the “Cmax Ratio to Phase I” value in data set [3] (monkey female) is listed as 32.2; in data set [3] (monkey male & female), 32.4; in data set [3] (monkey male) it was 32.6. Moreover, the results for the “AUC∞ Ratio to Phase II” value in data set [3] (monkey female), in data set [3] (monkey male & female) and in data set [3] (monkey male) were 120.0, 130.2 and 140.4, respectively. Moreover, the “Cmax Ratio to Phase II” value is reported as 81.9 in data set [3] (monkey female), 82.5 in data set [3] (monkey male & female) and 83.0 in data set [3] (monkey male). The molecule further yielded an NOAEL at 28 days in data set [3] (monkey, in vivo, iv, 28-day study i.v.) of 25 mg/kg/day.
